Laboratory results reported in patent US12577226B2, “Compounds for treating Huntington's disease” (PTC THERAPEUTICS, INC., priority 2019, dated 2026).

These compounds were tested on Endogenous Huntingtin Protein (capture with MW1 (expanded polyglutamine) or MAB2166 antibody) (assay: Endogenous Huntingtin Protein Assay (ELISA-based Meso Scale Discovery electrochemiluminescence assay)). Details: MSD electrochemiluminescence platform.
Assay type: cell-based
Experimental: Compounds of Formula (I), Formula (II), or Formula (III) were tested using the Meso Scale Discovery (MSD) Assay provided in International Application No. PCT/US2016/066042, filed on Dec. 11, 2016 and claiming priority to U.S. Provisional Application U.S. 62/265,652 filed on Dec. 10, 2015, the entire contents of which are incorporated herein by reference.
The Endogenous Huntingtin Protein assay used in Example 1 was developed using the ELISA-based MSD electrochemiluminescence assay platform.
Meso Scale Discovery (MSD) 96-well or 384-well plates were coated overnight at 4° C. with MW1 (expanded polyglutamine) or MAB2166 monoclonal antibody (for capture) at a concentration of 1 μg/mL in PBS (30 μL per well). Plates were then washed three times with 300 μL wash buffer (0.05% Tween-20 in PBS) and blocked (100 μL blocking buffer; 5% BSA in PBS) for 4-5 hours at room temperature with rotational shaking and then washed three times with wash buffer.
Samples (25 μL) were transferred to the antibody-coated MSD plate and incubated overnight at 4° C. After removal of the lysates, the plate was washed three times with wash buffer, and 25 μL of #5656S (Cell signaling; rabbit monoclonal) secondary antibody (diluted to 0.25 μg/mL in 0.05% Tween-20 in blocking buffer) was added to each well and incubated with shaking for 1 Hour at room temperature. Following incubation with the secondary antibody, the wells were rinsed with wash buffer after which 25 μL of goat anti-rabbit SULFO TAG secondary detection antibody (required aspect of the MSD system) (diluted to 0.25 μg/mL in 0.05% Tween-20 in blocking buffer) was added to each well and incubated with shaking for 1 hour at room temperature. After rinsing three times with wash buffer, 150 μL of read buffer T with surfactant (MSD) were added to each empty well, and the plate was imaged on a SI 6000 imager (MSD) according to manufacturers' instructions provided for 96- or 384-well plates.

IC50 | Compound
500 to 1000 nM | Cn1cnc(-c2cnc(-c3ccc(O[C@@H]4CC(C)(C)NC(C)(C)[C@@H]4F)nn3)c(O)c2)cc1=O.Cn1cnc(-c2cnc(-c3ccc(O[C@H]4CC(C)(C)NC(C)(C)[C@H]4F)nn3)c(O)c2)cc1=O (mixture of isomers) [Compound 42, 6-[6-(6-{[(3R,4S)-3-fluoro-2,2,6,6-tetramethylpiperidin-4-yl]oxy}pyridazin-3-yl)-5-hydroxypyridin-3-yl]-3-methylpyrimidin-4(3H)-one and 6-[6-(6-{[(3S,4R)-3-fluoro-2,2,6,6-tetramethylpiperidin-4-yl]oxy}pyridazin-3-yl)-5-hydroxypyridin-3-yl]-3-methylpyrimidin-4(3H)-one]
≤ 100 nM | COc1cc(-c2cnc(-c3ccc(OC4CC(C)(C)NC(C)(C)C4F)nn3)c(O)c2)nn2cc(C)nc12 (mixture of isomers) [Compound 57, 2-(6-{[(3R,4S)-3-fluoro-2,2,6,6-tetramethylpiperidin-4-yl]oxy}pyridazin-3-yl)-5-(8-methoxy-2-methylimidazo[1,2-b]pyridazin-6-yl)pyridin-3-ol and 2-(6-{[(3S,4R)-3-fluoro-2,2,6,6-tetramethylpiperidin-4-yl]oxy}pyridazin-3-yl)-5-(8-methoxy-2-methylimidazo[1,2-b]pyridazin-6-yl)pyridin-3-ol]
500 to 1000 nM | Cn1cc2c(-c3cnc(-c4ccc(O[C@@H]5CC(C)(C)NC(C)(C)[C@@H]5F)nn4)c(O)c3)ccc(F)c2n1.Cn1cc2c(-c3cnc(-c4ccc(O[C@H]5CC(C)(C)NC(C)(C)[C@H]5F)nn4)c(O)c3)ccc(F)c2n1 (mixture of isomers) [Compound 58, 5-(7-fluoro-2-methyl-2H-indazol-4-yl)-2-(6-{[(3R,4S)-3-fluoro-2,2,6,6-tetramethylpiperidin-4-yl]oxy}pyridazin-3-yl)pyridin-3-ol and 5-(7-fluoro-2-methyl-2H-indazol-4-yl)-2-(6-{[(3S,4R)-3-fluoro-2,2,6,6-tetramethylpiperidin-4-yl]oxy}pyridazin-3-yl)pyridin-3-ol]
≤ 100 nM | Cc1cn2cc(-c3cnc(-c4ccc(O[C@@H]5CC(C)(C)NC(C)(C)[C@@H]5F)nn4)c(O)c3)cc2c(C)n1.Cc1cn2cc(-c3cnc(-c4ccc(O[C@H]5CC(C)(C)NC(C)(C)[C@H]5F)nn4)c(O)c3)cc2c(C)n1 (mixture of isomers) [Compound 67, 5-(1,3-dimethylpyrrolo[1,2-a]pyrazin-7-yl)-2-(6-{[(3R,4S)-3-fluoro-2,2,6,6-tetramethylpiperidin-4-yl]oxy}pyridazin-3-yl)pyridin-3-ol and 5-(1,3-dimethylpyrrolo[1,2-a]pyrazin-7-yl)-2-(6-{[(3S,4R)-3-fluoro-2,2,6,6-tetramethylpiperidin-4-yl]oxy}pyridazin-3-yl)pyridin-3-ol]
≤ 100 nM | Cc1cn2nc(-c3cnc(-c4ccc(O[C@@H]5CC(C)(C)NC(C)(C)[C@@H]5F)nn4)c(O)c3)cc(C#N)c2n1.Cc1cn2nc(-c3cnc(-c4ccc(O[C@H]5CC(C)(C)NC(C)(C)[C@H]5F)nn4)c(O)c3)cc(C#N)c2n1 (mixture of isomers) [Compound 68, 6-[6-(6-{[(3R,4S)-3-fluoro-2,2,6,6-tetramethylpiperidin-4-yl]oxy}pyridazin-3-yl)-5-hydroxypyridin-3-yl]-2-methylimidazo[1,2-b]pyridazine-8-carbonitrile and 6-[6-(6-{[(3S,4R)-3-fluoro-2,2,6,6-tetramethylpiperidin-4-yl]oxy}pyridazin-3-yl)-5-hydroxypyridin-3-yl]-2-methylimidazo[1,2-b]pyridazine-8-carbonitrile]
100 to 500 nM | CC1(C)C[C@@H](Oc2ccc(-c3ncc(-c4nc5cnccn5n4)cc3O)nn2)[C@@H](F)C(C)(C)N1.CC1(C)C[C@H](Oc2ccc(-c3ncc(-c4nc5cnccn5n4)cc3O)nn2)[C@H](F)C(C)(C)N1 (mixture of isomers) [Compound 72, 2-(6-{[(3R,4S)-3-fluoro-2,2,6,6-tetramethylpiperidin-4-yl]oxy}pyridazin-3-yl)-5-([1,2,4]triazolo[1,5-a]pyrazin-2-yl)pyridin-3-ol and 2-(6-{[(3S,4R)-3-fluoro-2,2,6,6-tetramethylpiperidin-4-yl]oxy}pyridazin-3-yl)-5-([1,2,4]triazolo[1,5-a]pyrazin-2-yl)pyridin-3-ol]

Further lines, the compound ahead of its results:

Compound | IC50
5-(7-fluoro-2-methyl-2H-indazol-5-yl)-2-{6-[(3R,5S)-3,4,5-trimethylpiperazin-1-yl]pyridazin-3-yl}pyridin-3-ol and 5-(7-fluoro-2-methyl-2H-indazol-5-yl)-2-{6-[(3S,5R)-3,4,5-trimethylpiperazin-1-yl]pyridazin-3-yl}pyridin-3-ol [Compound 91] | ≤ 100 nM
5-(8-ethyl-2-methylimidazo[1,2-a]pyridin-6-yl)-2-(6-{[(3R,4S)-3-fluoro-2,2,6,6-tetramethylpiperidin-4-yl]oxy}pyridazin-3-yl)pyridin-3-ol and 5-(8-ethyl-2-methylimidazo[1,2-a]pyridin-6-yl)-2-(6-{[(3S,4R)-3-fluoro-2,2,6,6-tetramethylpiperidin-4-yl]oxy}pyridazin-3-yl)pyridin-3-ol [Compound 45] | ≤ 100 nM
5-(8-ethyl-2-methylimidazo[1,2-b]pyridazin-6-yl)-2-(6-{[(3R,4S)-3-fluoro-2,2,6,6-tetramethylpiperidin-4-yl]oxy}pyridazin-3-yl)pyridin-3-ol and 5-(8-ethyl-2-methylimidazo[1,2-b]pyridazin-6-yl)-2-(6-{[(3S,4R)-3-fluoro-2,2,6,6-tetramethylpiperidin-4-yl]oxy}pyridazin-3-yl)pyridin-3-ol [Compound 60] | ≤ 100 nM
5-[(2-methylpyrimidin-5-yl)amino]-2-{6-[(3R)-3-(propan-2-yl)piperazin-1-yl]pyridazin-3-yl}pyridin-3-ol and 5-[(2-methylpyrimidin-5-yl)amino]-2-{6-[(3S)-3-(propan-2-yl)piperazin-1-yl]pyridazin-3-yl}pyridin-3-ol [Compound 134] | 500 to 1000 nM
5-[(5-methylpyrazin-2-yl)amino]-2-{6-[(3R)-3-(propan-2-yl)piperazin-1-yl]pyridazin-3-yl}pyridin-3-ol and 5-[(5-methylpyrazin-2-yl)amino]-2-{6-[(3S)-3-(propan-2-yl)piperazin-1-yl]pyridazin-3-yl}pyridin-3-ol [Compound 133] | ≤ 100 nM
5-[(6-methylpyridin-3-yl)amino]-2-{6-[(3R)-3-(propan-2-yl)piperazin-1-yl]pyridazin-3-yl}pyridin-3-ol and 5-[(6-methylpyridin-3-yl)amino]-2-{6-[(3S)-3-(propan-2-yl)piperazin-1-yl]pyridazin-3-yl}pyridin-3-ol [Compound 127] | ≤ 100 nM
6-[6-(6-{[(3R,4S)-3-fluoro-2,2,6,6-tetramethylpiperidin-4-yl]oxy}pyridazin-3-yl)-5-hydroxypyridin-3-yl]-2-methylimidazo[1,2-a]pyridine-8-carbonitrile and 6-[6-(6-{[(3S,4R)-3-fluoro-2,2,6,6-tetramethylpiperidin-4-yl]oxy}pyridazin-3-yl)-5-hydroxypyridin-3-yl]-2-methylimidazo[1,2-a]pyridine-8-carbonitrile [Compound 59] | ≤ 100 nM
Cn1ccc(-c2cnc(-c3ccc(O[C@H]4CC(C)(C)NC(C)(C)[C@H]4F)nn3)c(O)c2)n1 (single isomer, unassigned) [Compound 7, 2-(6-{[(3R,4S)-3-fluoro-2,2,6,6-tetramethylpiperidin-4-yl]oxy}pyridazin-3-yl)-5-(1-methyl-1H-pyrazol-3-yl)pyridin-3-ol or 2-(6-{[(3S,4R)-3-fluoro-2,2,6,6-tetramethylpiperidin-4-yl]oxy}pyridazin-3-yl)-5-(1-methyl-1H-pyrazol-3-yl)pyridin-3-ol] | 100 to 500 nM
CC1(C)C[C@H](Oc2ccc(-c3ncc(-n4ccnc4)cc3O)nn2)[C@H](F)C(C)(C)N1 (single isomer, unassigned) [Compound 9, 2-(6-{[(3R,4S)-3-fluoro-2,2,6,6-tetramethylpiperidin-4-yl]oxy}pyridazin-3-yl)-5-(1H-imidazol-1-yl)pyridin-3-ol or 2-(6-{[(3S,4R)-3-fluoro-2,2,6,6-tetramethylpiperidin-4-yl]oxy}pyridazin-3-yl)-5-(1H-imidazol-1-yl)pyridin-3-ol] | 100 to 500 nM
CC1(C)C[C@H](Oc2ccc(-c3ncc(-n4nccn4)cc3O)nn2)[C@H](F)C(C)(C)N1 (single isomer, unassigned) [Compound 11, 2-(6-{[(3R,4S)-3-fluoro-2,2,6,6-tetramethylpiperidin-4-yl]oxy}pyridazin-3-yl)-5-(2H-1,2,3-triazol-2-yl)pyridin-3-ol or 2-(6-{[(3S,4R)-3-fluoro-2,2,6,6-tetramethylpiperidin-4-yl]oxy}pyridazin-3-yl)-5-(2H-1,2,3-triazol-2-yl)pyridin-3-ol] | ≤ 100 nM
